These results are taken from patent US20170253607A1, “LONG-ACTING HIV PROTEASE INHIBITOR” (Shionogi & Co., Ltd., priority 2014, published 2017).

The assay concerns the target HIV-1 PR (Human immunodeficiency virus type 1 group M subtype B, UniProt P04585). The assay can be described thus: HIV-protease inhibitory activity assay (FRET peptide substrate). Type of assay: biochemical. As to conditions: Test Example 1. As for the experimental part: Test Example 1: HIV-Protease Inhibitory Activity Assay
The HIV-1 PR assay was performed by using a FRET (Fluorescence Resonance Energy Transfer) peptide substrate (AnaSpec, Inc., Fremont, Calif.). Initially in the intact FRET peptide, the fluorescence of HiLyte Fluor 488 is quenched by QXL 520. Upon substrate cleavage by PR, the fluorescence is recovered and can be monitored. Test compounds diluted in DMSO was plated to the wells of 384-well plate. Then, mixed with assay buffer (0.1 mol/L NaAc containing 0.5 mol/L NaCl, 1 mmol/L EDTA, 1 mmol/L DTT, and 0.05% Tween 20, pH 4.8) in the presence or absence of HIV-1 PR (0.83 ng), and let it stand for 5 minutes at room temperature. Background fluorescence intensity was measured and let it stand for another 15 minutes at room temperature. The enzyme reaction was started by adding substrate diluted in assay buffer at final concentration of 2 μmol/L, and let it stand for 60 minutes at room temperature. After 60 minutes, the fluorescence intensity was measured. Fluorescence intensity was measured with excitation and emission wavelengths of 485 nm and 535 nm, respectively.
IC50 values were determined using non-linear regression four-parameter logistic equation, y=A+((B−A)/(1+((C/x)̂D))) where A=minimum inhibition, B=maximum inhibition, C=log IC50, D=slope factor, x=concentration of compound and y=% inhibition.
`COc1ccc(S(=O)(=O)N(CC(C)C)C[C@@H](O)[C@H](Cc2ccc(OCc3ccccc3-c3sc(-c4ccccc4)nc3C(=O)O)cc2)NC(=O)O[C@H]2CO[C@H]3OCC[C@H]32)cc1` [Compound I-3] yielded an IC50 of 1.02 nM.
In turn, `COc1ccc(S(=O)(=O)N(CC(C)C)C[C@@H](O)[C@H](Cc2ccc(COc3ccccc3-c3sc4c(c3C(=O)O)CC(C)(C)CC4)cc2)NC(=O)O[C@H]2CO[C@@]3(C)OCC[C@@H]23)cc1` [Compound I-4] yielded an IC50 of 1.69 nM.
As to `COc1ccc(S(=O)(=O)N(CC(C)C)C[C@@H](O)[C@H](Cc2ccc(OCc3sc4ccccc4c3C(=O)O)cc2)NC(=O)O[C@H]2CO[C@@]3(C)OCC[C@@H]23)cc1` [Compound I-5], the midpoint of inhibition, the IC50, lay at 1.15 nM.
The result for `COc1ccc(S(=O)(=O)N(CC(C)C)C[C@@H](O)[C@H](Cc2ccc(C#Cc3sc4c(c3C(=O)O)CC(C)(C)CC4)cc2)NC(=O)O[C@H]2CO[C@@]3(C)OCC[C@@H]23)cc1` [Compound I-11] reads 1.4 nM.
As for `COc1ccc(S(=O)(=O)N(CC(C)C)C[C@@H](O)[C@H](Cc2ccc(NCc3sc4c(c3C(=O)O)CC(C)(C)CC4)cc2)NC(=O)O[C@H]2CO[C@@]3(C)OCC[C@@H]23)cc1` [Compound I-14], the IC50 was 1.7 nM.
The result for `CC(C)CN(C[C@@H](O)[C@H](Cc1ccc(OCc2ccccc2-c2sc3c(c2C(=O)O)CC(C)(C)CC3)cc1)NC(=O)O[C@H]1CO[C@@]2(C)OCC[C@@H]12)S(=O)(=O)c1ccc(N)c(/C=C/C(N)=O)c1` [Compound I-16] reads 2.22 nM.
As to `CC(C)CN(C[C@@H](O)[C@H](Cc1ccc(OCc2ccccc2-c2sc3c(c2C(=O)O)CC(C)(C)CC3)cc1)NC(=O)O[C@H]1CO[C@@]2(C)OCC[C@@H]12)S(=O)(=O)c1ccc(N)c(CCC(N)=O)c1` [Compound I-17], the IC50 turned out to be 1.24 nM.
The molecule `CC(C)CN(C[C@@H](O)[C@H](Cc1ccc(OCc2ccc(-c3ccc(F)cc3F)cc2C(=O)O)cc1)NC(=O)O[C@H]1CO[C@@]2(C)OCC[C@@H]12)S(=O)(=O)c1ccc2ncsc2c1` [Compound I-18] gave an IC50 of 1.63 nM.
Regarding `COc1ccc(S(=O)(=O)N(CC(C)C)C[C@@H](O)[C@H](Cc2ccc(OCc3ccccc3-c3sc4c(c3C(N)=O)CC(C)(C)CC4)cc2)NC(=O)O[C@H]2CO[C@@]3(C)OCC[C@@H]23)cc1` [Compound I-20], the midpoint of inhibition, the IC50, lay at 1.77 nM.
The value for `COc1ccc(S(=O)(=O)N(CC(C)C)C[C@@H](O)[C@H](Cc2ccc(OCc3ccc(-c4ccc(F)cc4F)cc3-c3noc(=O)[nH]3)cc2)NC(=O)O[C@H]2CO[C@@]3(C)OCC[C@@H]23)cc1` [Compound I-21] was 1.39 nM.
As for `COc1ccc(S(=O)(=O)N(CC(C)C)C[C@@H](O)[C@H](Cc2ccc(OCc3ccc(-c4ccc(F)cc4F)cc3-c3nnn[nH]3)cc2)NC(=O)O[C@H]2CO[C@@]3(C)OCC[C@@H]23)cc1` [Compound I-22], the concentration for half-maximal inhibition (IC50) came to 0.99 nM.
On to `COc1ccc(S(=O)(=O)N(CC(C)C)C[C@@H](O)[C@H](Cc2ccc(OCc3ccc(-c4ccc(F)cc4F)cc3C(=O)NC(N)=O)cc2)NC(=O)O[C@H]2CO[C@@]3(C)OCC[C@@H]23)cc1` [Compound I-24], for which the IC50 was determined as 1.39 nM.
The molecule `COc1ccc(S(=O)(=O)N(CC(C)C)C[C@@H](O)[C@H](Cc2ccc(OCc3ccc(-c4ccc(F)cc4F)cc3C(=O)NC(=O)NC(C)(C)C)cc2)NC(=O)O[C@H]2CO[C@@]3(C)OCC[C@@H]23)cc1` [Compound I-25] gave an IC50 of 2.07 nM.
`CC(C)CN(C[C@@H](O)[C@H](Cc1ccccc1)NC(=O)O[C@H]1CO[C@@]2(C)OCC[C@@H]12)S(=O)(=O)c1ccc2nc(NCc3sc4c(c3C(=O)O)CC(C)(C)CC4)sc2c1` [Compound I-26] showed an IC50 of 2.01 nM.
As to `CC(C)CN(C[C@@H](O)[C@H](Cc1ccccc1)NC(=O)O[C@H]1CO[C@@]2(C)OCC[C@@H]12)S(=O)(=O)c1ccc2nc(NCCCCOc3ccc(-c4sc5c(c4C(=O)O)CC(C)(C)CC5)cc3)sc2c1` [Compound I-27], the IC50 stood at 3.7 nM.
The result for `COc1ccc(S(=O)(=O)N(CC(C)C)C[C@@H](O)[C@H](Cc2ccc(OCc3ccccc3-c3sc4c(c3C(=O)O)CC(C)(C)CC4)cc2)NC(=O)O[C@@H]2C[C@@H]3[C@@H](OC(C)=O)CO[C@@H]3C2)cc1` [Compound I-28] reads 1.63 nM; that for `COc1ccc(S(=O)(=O)N(CC(C)C)C[C@@H](O)[C@H](Cc2ccccc2)NC(=O)O[C@H]2CO[C@@]3(CNC(=O)/C=C/c4sc5c(c4C(=O)O)CC(C)(C)CC5)OCC[C@@H]23)cc1` [Compound I-31], 0.73 nM; that for `CC1(C)CCc2sc(-c3ccc(CNC(=O)OC[C@]45OCC[C@H]4[C@@H](OC(=O)N[C@@H](Cc4ccccc4)[C@H](O)CN(CC(F)F)S(=O)(=O)c4ccc6ncsc6c4)CO5)cc3)c(C(=O)O)c2C1` [Compound I-32], 1.37 nM.
Take `COc1ccc(S(=O)(=O)N(CC(C)C)C[C@@H](O)[C@H](Cc2ccccc2)NC(=O)O[C@H]2CO[C@@]3(CNC(=O)OCCCc4sc5c(c4C(=O)O)CC(C)(C)CC5)OCC[C@@H]23)cc1` [Compound I-34]: the IC50 stood at 1.28 nM.
The result for `CC1(C)CCc2sc(-c3cccc(CCCN(C[C@@H](O)[C@H](Cc4ccccc4)NC(=O)O[C@H]4CO[C@@]5(C)OCC[C@@H]45)S(=O)(=O)c4ccc5ncsc5c4)c3)c(C(=O)O)c2C1` [Compound I-36] reads 1.88 nM; that for `COc1ccc(S(=O)(=O)N(CC(C)C)CC(O)C(Cc2ccc(NCc3ccccc3-n3nc4c(c3C(=O)O)CC3(CCCC3)CC4)cc2)NC(=O)OC2COC3(C)OCCC23)cc1` (centres unmarked) [Compound I-38], 3.85 nM; that for `COc1ccc(S(=O)(=O)N(CC(C)C)CC(O)C(Cc2ccc(OCc3ccccc3-c3ccc4c(c3C(=O)O)CC(C)(C)CC4)cc2)NC(=O)OC2COC3(C)OCCC23)cc1` (centres unmarked) [Compound I-40], 1.9 nM.
For the molecule `COc1ccc(S(=O)(=O)N(CC(C)C)CC(O)C(Cc2ccc(-c3sc4c(c3C(=O)O)CC(C)(C)CC4)cc2)NC(=O)OC2COC3(C)OCCC23)cc1` (centres unmarked) [Compound I-41], the IC50 was determined as 1.11 nM.
The molecule `COc1ccc(S(=O)(=O)N(CC(C)C)CC(O)C(Cc2ccc(N(Cc3ccccc3-c3sc4c(c3C(=O)O)CC(C)(C)CC4)CC3CCCCC3)cc2)NC(=O)OC2COC3(C)OCCC23)cc1` (centres unmarked) [Compound I-42] returned an IC50 of 23.4 nM.
`COc1ccc(S(=O)(=O)N(CC(C)C)CC(O)C(Cc2ccc(N(C)Cc3sc4c(c3C(=O)O)CC(C)(C)CC4)cc2)NC(=O)OC2COC3(C)OCCC23)cc1` (centres unmarked) [Compound I-46] displayed an IC50 of 1.86 nM.
Take `COc1ccc(S(=O)(=O)N(CC(C)C)CC(O)C(Cc2ccc(OCc3ccccc3-c3c(C(=O)O)c4c(n3C)CCCC4)cc2)NC(=O)OC2COC3(C)OCCC23)cc1` (centres unmarked) [Compound I-50]: the IC50 is 1.13 nM.
The value for `CC(C)CN(CC(O)C(Cc1ccc(OCc2ccccc2-c2sc3c(c2C(=O)O)CC(C)(C)CC3)cc1)NC(=O)OC1COC2(C)OCCC12)S(=O)(=O)c1ccc(N)cc1` (centres unmarked) [Compound I-52] was 2.34 nM; that for `COc1ccc(S(=O)(=O)N(CC(C)C)CC(O)C(Cc2ccc(OCc3ccccc3-n3nc4c(c3C(=O)O)CC3(CCCC3)CC4)cc2)NC(=O)OC2COC3(C)OCCC23)cc1` (centres unmarked) [Compound I-53] was 0.83 nM.
In the case of `COc1ccc(S(=O)(=O)N(CC(C)C)CC(O)C(Cc2ccc(OCc3ccccc3-c3sc4c(c3C(=O)O)CC(F)(F)CC4)cc2)NC(=O)OC2COC3(C)OCCC23)cc1` (centres unmarked) [Compound I-54], the IC50 amounted to 1.24 nM.
Turning to `COc1ccc(S(=O)(=O)N(CC(C)C)CC(O)C(Cc2ccc(OCc3ccccc3-c3sc4c(c3C(=O)O)CC(C)(C)CC4)cc2)NC(=O)OC2COC3(C)OCC(O)C23)cc1` (centres unmarked) [Compound I-56], 1.21 nM corresponded to half-maximal inhibition (IC50). The IC50 values of the last two molecules are within 1.5-fold of each other.
`COc1ccc(S(=O)(=O)N(CC(C)C)CC(O)C(Cc2ccc(OC(C)(C)C(=O)NS(=O)(=O)c3cccc(-c4ccc(F)cc4F)c3)cc2)NC(=O)OC2COC3(C)OCCC23)cc1` (centres unmarked) [Compound I-57] had an IC50 of 1.07 nM.
Consider `COc1ccc(S(=O)(=O)N(CC(C)C)CC(O)C(Cc2ccc(OCc3ccccc3-c3sc4c(c3C(=O)NS(=O)(=O)C3CC3)CC(C)(C)CC4)cc2)NC(=O)OC2COC3(C)OCCC23)cc1` (centres unmarked) [Compound I-58], for which 1.11 nM corresponded to half-maximal inhibition (IC50).
The result for `CC(C)CN(CC(O)C(Cc1ccc(Oc2ccc(-c3ccc(F)cc3F)cc2C(=O)O)cc1)NC(=O)OC1COC2(C)OCCC12)S(=O)(=O)c1ccc2ncsc2c1` (centres unmarked) [Compound I-59] reads 1.19 nM.
`CC(C)CN(CC(O)C(Cc1ccc(OCc2cc(C(=O)O)cc(-c3ccc(F)cc3F)c2)cc1)NC(=O)OC1COC2(C)OCCC12)S(=O)(=O)c1ccc2ncsc2c1` (centres unmarked) [Compound I-60] returned an IC50 of 1.6 nM. The IC50 values of the last two molecules are within 1.5-fold of each other.
Consider `CC(C)CN(CC(O)C(Cc1ccc(OCc2cc(-c3ccc(F)cc3F)ccc2C(=O)O)cc1)NC(=O)OC1COC2(C)OCCC12)S(=O)(=O)c1ccc2ncsc2c1` (centres unmarked) [Compound I-61], for which the IC50 was 1.9 nM.
In turn, `CC(C)CN(CC(O)C(Cc1ccc(OCc2cc(-c3ccc(F)cc3F)ccc2C(N)=O)cc1)NC(=O)OC1COC2(C)OCCC12)S(=O)(=O)c1ccc2ncsc2c1` (centres unmarked) [Compound I-62] yielded an IC50 of 0.82 nM. Against the preceding molecule, the IC50 is about 2.3-fold lower.
In turn, `COc1ccc(S(=O)(=O)N(CC(C)C)CC(O)C(Cc2ccc(COc3ccc(-c4ccc(F)cc4F)cc3C(=O)O)cc2)NC(=O)OC2COC3(C)OCCC23)cc1` (centres unmarked) [Compound I-63] came in with an IC50 of 0.89 nM.
For the molecule `CC(C)CN(CC(O)C(Cc1ccc(OCc2ccccc2-c2ccccc2C(=O)O)cc1)NC(=O)OC1COC2(C)OCCC12)S(=O)(=O)c1ccc2ncsc2c1` (centres unmarked) [Compound I-64], the IC50 was determined as 1.3 nM.

In general, IC50 refers to the midpoint of a concentration-inhibition curve. Lower therefore signals inhibition by little substance.
